Laboratory results taken from patent US4622430A (priority 1982, dated 1986).
Read-outs that look alike come from different tables or passages of the source.

What was measured:
[1] = system: reserpine-induced catalepsy; experiment: Antagonism of reserpine-induced catalepsy in the mouse; format: in vivo, Male CD-1 mice; settings: 0.75 h, read-out: ED50 (dose causing a reduction of the catalepsy score to 50% of the control group score), oral, reserpine 5 mg/kg i.p. 4 h before, scored 45 min after compound
[2] = Irwin dose-range study/acute toxicity in the mouse; parameters: species or system Male CD-1 mice; settings: in vivo; for selectivity ratio: LD50 acute oral toxicity / ED50 reserpine catalepsy, read-out: Therapeutic index (LD50/ED50); for LD50 at 168 h: oral, 7 days observation, method of Horn
Description: Irwin Dose-Range Study/Acute Toxicity in the Mouse
The animals were also observed daily for seven days post-dose and any mortalities noted. LD50 values were estimated using the method of Horn (Biometrics, 12, 311 (1956)).

[3] = system: oxotremorine-induced tremor and salivation; experiment: Anti-oxotremorine test in the mouse; settings: 0-3 scale; for Mean tremor score (± s.e.): vehicle 2,6-2,9; for Mean salivation score (± s.e.): vehicle 2,7-2,9
[4] = system: CVS strain of rabies virus; format: in vivo, in Swiss-Webster mice
[5] = 10 mg/kg oral, 10 min post-oxotremorine
[6] = 100 mg/kg oral, 30 min post-oxotremorine

For `CC12C3CC4C5CC(C(C53)C1NCc1ccccc1)C42` (stereo not shown) [Compound 16, 4-Benzylamino-3-methyl-(D3)-trishomocubane], the ED50 [1] was 69.1 mg/kg, the selectivity ratio [2] was > 14.5 and the LD50 at 168 h [2] was > 1000 mg/kg. For the same molecule, the “Mean tremor score (± s.e.)” value [3, 5] was 1,4 ± 0,2 and the “Mean salivation score (± s.e.)” value [3, 5] was 1,3 ± 0,2.

For `NC1C2C3CC4C5CC(C1C53)C42` (stereo not shown) [Compound 11, 4-amino-(D3)-trishomocubane], the ED50 [1] was 139 mg/kg, the selectivity ratio [2] was 7.2 and the LD50 at 168 h [2] was 1000 mg/kg.

In the case of `CC12C3CC4C5CC(C(C53)C1NCCc1ccccc1)C42` (stereo not drawn) [Compound 17, 4-(β-phenyl)ethylamino-3-methyl-(D3)-trishomocubane], the “Mean tremor score (± s.e.)” value [3, 6] is reported as 1,4 ± 0,2 and the “Mean salivation score (± s.e.)” value [3, 6] is reported as 1,0 ± 0,3.

`NC1C2C3CC4C5CC(C42)C1(c1ccccc1)C53` (stereo not shown) [Compound 19, 4-amino-3-phenyl-(D3)-trishomocubane] gave an ED50 [1] of 32.2 mg/kg, a selectivity ratio [2] of 25.6 and an LD50 at 168 h [2] of 825 mg/kg. The “Survival parameter (sum of days survived by six mice, up to 14 days each)” value (“Survival parameter” for short) ([4]; i.p. 10 mg/kg, 24 hours post inoculation, control 53 (compound 14), 59 (compound 19)) was 66, the “Survival parameter” value ([4]; i.p. 10 mg/kg, 96 hours post inoculation, control 52 (compound 14), 61 (compound 19)) was 77 and the “Survival parameter” value ([4]; i.p. 21,5 mg/kg, 24 hours post inoculation, control 53 (compound 14), 59 (compound 19)) was 65. The “Survival parameter” value ([4]; i.p. 21,5 mg/kg, 96 hours post inoculation, control 52 (compound 14), 61 (compound 19)) was 71, the “Survival parameter” value ([4]; i.p. 46,4 mg/kg, 24 hours post inoculation, control 53 (compound 14), 59 (compound 19)) was 66 and the “Survival parameter” value ([4]; i.p. 46,4 mg/kg, 96 hours post inoculation, control 52 (compound 14), 61 (compound 19)) was 68. The “Mean salivation score (± s.e.)” value ([3]; 30 mg/kg oral, 20 min post-oxotremorine) was 1,0 ± 0,2.

In the case of `CNC1C2C3CC4C5CC(C42)C1(C)C53` (stereo not shown) [Compound 23, 3-methyl-4-methylamino-(D3)-trishomocubane], the “Mean salivation score (± s.e.)” value ([3]; 30 mg/kg oral, 30 min post-oxotremorine) is reported as 0,8 ± 0,2 and the “Mean tremor score (± s.e.)” value ([3]; 100 mg/kg oral, 10 min post-oxotremorine) is reported as 1,2 ± 0,2.
